Reference: patent US20190336490A1, “COMPOSITIONS AND METHODS FOR INCREASING REMYELINATION” (Frequency Therapeutics, Inc., priority 2018, published 2019)

Assays:
muscarinic M1 receptor = target: T1, muscarinic M1 receptor (Homo sapiens, UniProt P11229); settings: cited from earlier work
T1 sequence (P11229 1-460): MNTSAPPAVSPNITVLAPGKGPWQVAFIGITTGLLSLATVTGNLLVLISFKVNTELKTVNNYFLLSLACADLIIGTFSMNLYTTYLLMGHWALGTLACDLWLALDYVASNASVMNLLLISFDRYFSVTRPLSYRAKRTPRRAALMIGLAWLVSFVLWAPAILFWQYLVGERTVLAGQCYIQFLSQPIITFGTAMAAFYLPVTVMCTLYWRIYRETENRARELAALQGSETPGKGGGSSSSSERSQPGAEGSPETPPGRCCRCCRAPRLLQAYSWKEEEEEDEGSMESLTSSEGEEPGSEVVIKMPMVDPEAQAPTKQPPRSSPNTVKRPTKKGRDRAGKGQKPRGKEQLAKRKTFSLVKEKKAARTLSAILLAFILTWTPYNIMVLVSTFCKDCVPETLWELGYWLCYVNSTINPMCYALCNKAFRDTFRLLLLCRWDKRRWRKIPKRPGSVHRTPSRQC

[1] = system: OPC (oligodendrocyte precursor cell); assay: OPC Cell Activity; format: cell-based
[2] = system: Rat primary optic nerve oligodendrocyte progenitor cells (OPCs); assay: OPC differentiation assay (MBP staining); format: cell-based; settings: 6 days

Row | Compound | In vitro M1 (Conc) (muscarinic M1 receptor) | OPC Cell Activity ([1]; Table 1, in words) | other results
1 | CCN(CC)CC1CCCCN1CC(=O)N1c2ccccc2C(=O)Nc2cccnc21 (stereo not shown) [AF-DX 116] | 417 nM |  | 
2 | O=C(O[C@H]1C[N+]2(CCCOc3ccccc3)CCC1CC2)C(O)(c1cccs1)c1cccs1 [Aclidinium bromide] | 0.10 nM |  | 
3 | CC(CN(C)C)CN1c2ccccc2Sc2ccccc21 (stereo not shown) [Alimemazine] | 398 nM |  | 
4 | CN1[C@@H]2CC[C@H]1C[C@@H](OC(=O)C(CO)c1ccccc1)C2 (stereo partly shown) [Atropine] |  |  | OPC Cell Activity ([1]; Table 1): 5700 nM
5 | CN1CCCC(n2nc(Cc3ccc(Cl)cc3)c3ccccc3c2=O)CC1 (stereo not shown) [Azelastine] | 4,200 nM |  | 
6 | CN1[C@@H]2CC[C@H]1C[C@@H](OC(c1ccccc1)c1ccccc1)C2 [Benztropine] |  |  | OPC Cell Activity ([1]; Table 1): 170 to 350 nM
7 | C[N+]1(C)CCCCC1COC(=O)C(O)(c1ccccc1)c1ccccc1 (stereo not shown) [Bevonium] |  | Active | 
8 | OC(CCN1CCCCC1)(c1ccccc1)C1CC2C=CC1C2 (stereo not shown) [Biperiden] | 0.85 nM |  | 
9 | CN(C)CCOC(c1ccc(Cl)cc1)c1ccccn1 (stereo not shown) [Carbinoxamine] | 740 nM |  | 
10 | CN(C)CCCN1c2ccccc2Sc2ccc(Cl)cc21 [Chlorpromazine] |  | Active | 
11 | Clc1ccc(Cn2c(CN3CCCC3)nc3ccccc32)cc1 [Clemizole] |  |  | OPC Cell Activity ([1]; Table 2, in words): Active
12 | NC(=NCc1ccc(Cl)cc1)SCCCc1cnc[nH]1 [Clobenpropit] |  |  | OPC Cell Activity ([1]; Table 2): 125 nM
13 | CC(CN(C)C)CN1c2ccccc2Sc2ccc(C#N)cc21 (stereo not shown) [Cyamemazine] | 11 nM |  | 
14 | NC(=O)C(c1ccccc1)(c1ccccc1)[C@@H]1CCN(CCc2ccc3c(c2)CCO3)C1 [Darifenacin] |  | Active | 
15 | CC(C1=C(CCN(C)C)Cc2ccccc21)c1ccccn1 (stereo not shown) [Dimetindene] | 320 nM |  | 
16 | CN1CCC(OC(c2ccccc2)c2ccccc2)CC1 [Diphenylpyraline] |  | Active | 
17 | CN(C)CCC[C@@]1(c2ccc(F)cc2)OCc2cc(C#N)ccc21 [Escitalopram] |  | Active | 
18 | O=C1CCCN1c1ccc(Oc2ccc3c(c2)CCN(C2CCC2)CC3)nc1 [GSK-239512] |  |  | OPC Cell Activity ([1]; Table 2): 120 to 160 nM
19 | c1cc2c(cc1-c1noc(CC3CCN(C4CCC4)CC3)n1)OCO2 [GSK-247246] |  |  | OPC Cell Activity ([1]; Table 2): 25 to 100 nM
20 | C[N+]1(C)CCC(OC(=O)C(O)(c2ccccc2)C2CCCC2)C1 (stereo not shown) [Glycopyrronium bromide] | 0.42 nM |  | 
21 | CN1CCCN(C(c2ccccc2)c2ccc(Cl)cc2)CC1 (stereo not shown) [Homochlorcyclizine] | 22 nM |  | 
22 | OCCOCCN1CCN(C(c2ccccc2)c2ccc(Cl)cc2)CC1 (stereo not shown) [Hydroxyzine] | 3,800 nM | Active | 
23 | CN1[C@@H]2CC[C@H]1C[C@@H](OC(=O)[C@H](CO)c1ccccc1)C2 [Hyoscyamine] |  | Active | 
24 | CC(C)[N+]1(C)[C@@H]2CC[C@H]1C[C@@H](OC(=O)C(CO)c1ccccc1)C2 (stereo partly shown) [Ipratropium] | 1.31 nM | Active | 
25 | C[C@@H]1CCCN1CCCOc1ccc(-c2ccc(=O)[nH]n2)cc1 [Irdabisant] |  |  | OPC Cell Activity ([1]; Table 2): 250 nM
26 | CC(CN1c2ccccc2Sc2cccnc21)N(C)C (stereo not shown) [Isothipendyl] | 74 nM |  | 

Row | Compound | In vitro M1 (Conc) (muscarinic M1 receptor) | OPC Cell Activity ([1]; Table 1, in words) | other results
27 | CN(CCCN1c2ccccc2CCc2ccccc21)CC(=O)c1ccc(Cl)cc1 [Lofepramine] | 67 nM |  | 
28 | CN1CCc2c(c3ccccc3n2Cc2ccccc2)C1 [Mebhydrolin] | 180 nM |  | 
29 | C[N+]1(C)CCCC(OC(=O)C(O)(c2ccccc2)c2ccccc2)C1 (stereo not shown) [Mepenzolate] | 27 nM | Active | 
30 | c1ccc2c(c1)Sc1ccccc1N2CC1CN2CCC1CC2 (stereo not shown) [Mequitazine] | 5.0 nM |  | 
31 | CN1CCCCC1CCN1c2ccccc2Sc2ccc([S+](C)[O-])cc21 (stereo not shown) [Mesoridazine] | 10 nM |  | 
32 | C[N+]1(C)[C@@H]2CC[C@H]1C[C@@H](OC(=O)C(CO)c1ccccc1)C2 (stereo partly shown) [Methylatropine] |  | Active | 
33 | CCCC(CCC)C(=O)O[C@H]1C[C@H]2CC[C@@H](C1)[N+]2(C)C [Octatropine methylbromide] |  | Active | 
34 | CCCCCCCCOc1ccccc1C(=O)Nc1ccc(C(=O)OCC[N+](C)(CC)CC)cc1 [Octylonium bromide] | 2 nM | Active | 
35 | CCN(CC)CC#CCOC(=O)C(O)(c1ccccc1)C1CCCCC1 (stereo not shown) [Oxybutynin] |  |  | OPC Cell Activity ([1]; Table 1): 670 nM
36 | CCN(CC)CCOCCOC(=O)C1(c2ccccc2)CCCC1 [Pentoxyverine, carbetapentane, Pentoxyverine] | 13 to 76 nM |  | OPC Cell Activity ([1]; Table 1): 260 nM
37 | CCN1CCCC(OC(=O)C(c2ccccc2)c2ccccc2)C1 (stereo not shown) [Piperidolate] |  | Active | 
38 | Clc1ccc(CCCOCCCN2CCCCC2)cc1 [Pitolisant (tiprolisant), Pitolisant] |  |  | OPC Cell Activity ([1]; Table 2): 14 to 100 nM; dose sparing activity with respect to the other agent ([2]; clemastine fumarate 0 to 5 μM combined with pitolisant hydrochloride 0 to 2 μM): dose sparing activity; OPC differentiation (% of MBP+ cells) ([2]; pitolisant hydrochloride alone, 0 to 2 μM): induce OPC differentiation
39 | CCCNCC(O)COc1ccccc1C(=O)CCc1ccccc1 (stereo not shown) [Propafenone] |  | Active | 
40 | CC(C)[N+](C)(CCOC(=O)C1c2ccccc2Oc2ccccc21)C(C)C [Propantheline] | 0.22 nM |  | OPC Cell Activity ([1]; Table 1): 1250 to 2950 nM
41 | CCCOC(C(=O)OC1CCN(C)CC1)(c1ccccc1)c1ccccc1 [Propiverine] | 619 nM |  | OPC Cell Activity ([1]; Table 1): 420 nM
42 | OCCOCCN1CCN(C2=Nc3ccccc3Sc3ccccc32)CC1 [Quetiapine] |  | Active | 
43 | CN1[C@@H]2C[C@@H](OC(=O)[C@H](CO)c3ccccc3)C[C@H]1[C@@H]1O[C@@H]12 [Scopolamine] |  |  | OPC Cell Activity ([1]; Table 1): 5100 nM
44 | O=C(O[C@H]1CN2CCC1CC2)N1CCc2ccccc2[C@@H]1c1ccccc1 [Solifenacin] | 25 nM | Active | 
45 | C[N+]1(C)[C@@H]2C[C@@H](OC(=O)C(O)(c3cccs3)c3cccs3)C[C@H]1[C@@H]1O[C@@H]12 [Tiotropium bromide] | 0.13 nM | Active | 
46 | Cc1ccc(O)c([C@H](CCN(C(C)C)C(C)C)c2ccccc2)c1 [Tolterodine] | 190 nM |  | 
47 | OC(CCN1CCCCC1)(c1ccccc1)C1CCCCC1 (stereo not shown) [Trihexyphenidyl] |  | Active | 
48 | CN(C)CCN(Cc1ccccc1)c1ccccn1 [Tripelennamine] | 1,3000 nM | Active | 
49 | Cc1ccc(/C(=C\CN2CCCC2)c2ccccn2)cc1 [Triprolidine] | 15000 nM |  | 
50 | O=C(CCNS(=O)(=O)c1cccc2nsnc12)N1CCN(c2ccncc2)CC1 [VU0409774] | 690 nM |  | 
51 | Cc1noc(C)c1S(=O)(=O)N1CCN(c2ccc(N3CCCC(C)(C)C3)nn2)CC1 [VU6009833] | 288 nM |  | 
52 | Aminobenzotropine |  | Active | 
